Data: patent US20030166651A1, “Novel 3-substituted 1,2,4-benzotriazines, a method for their production and the use thereof” (priority 1999, published 2003)
In brackets after ≈: the same amount, converted by molar mass.

What was measured:
Assay type in all cases: cell-based
Peritoneal carcinoma = assay: Inhibition of cell growth, peritoneal carcinoma cells; settings: 72 h, three days at 37° C., microscope assessment, read-out: IC50 value (50% inhibition of cell growth)
Protocol: (§1) Aqueous sterile solutions of each substance to be tested are injected into 1 ml of the respective cell stock solution at concentration steps of 2-50 μg each time. Subsequently, the test chambers are developed together with a non-treated reference chamber for three days at 37° C. Assessment is performed using a microscope. Cell growth or cell decomposition (condition of cell membrane and cell nucleus) is compared to non-treated reference cells.

Hep2 = assay: Inhibition of cell growth, Hep2 cells; settings: three days at 37° C., microscope assessment; for IC50: Homo sapiens, HEp-2, 72 h, read-out: IC50 value (50% inhibition of cell growth)
Protocol: as §1

Pleural carcinoma = assay: Inhibition of cell growth, pleural carcinoma cells; settings: 72 h, three days at 37° C., microscope assessment, read-out: IC50 value (50% inhibition of cell growth)
Protocol: as §1

HeLa = assay: Inhibition of cell growth, HeLa cells; settings: three days at 37° C., microscope assessment; for IC50: Homo sapiens, 72 h, read-out: IC50 value (50% inhibition of cell growth)
Protocol: as §1

[1] = system: permanent cell cultures such as HeLa, Hep2 cells, of peritoneal carcinoma and pleural carcinoma cells; assay: Inhibition of cell growth, overall statement on the tumor cell cultures
Protocol: as §1

| Compound | IC50 (Peritoneal carcinoma) | IC50 (Hep2) | IC50 (Pleural carcinoma) | IC50 (HeLa) | IC50 value (50% inhibition of cell growth) (HeLa) | inhibition of cell growth / antitumor activity, result in words [1] | IC50 value (50% inhibition of cell growth) (Hep2) |
| --- | --- | --- | --- | --- | --- | --- | --- |
| COC(=O)Cc1nnc2ccc(Cl)cc2n1 [Compound b, 3-(methoxycarbonylmethyl)-6-chlorobenzo-1,2,4-triazine] | 150 µg/mL (≈ 631 µM) | 120 µg/mL (≈ 505 µM) | 500 µg/mL (≈ 2100 µM) | 160 µg/mL (≈ 673 µM) | – | – | – |
| COC(=O)Cc1nnc2ccc(Cl)c(N)c2n1 [Compound d, 3-(methoxycarbonylmethyl)-5-amino-6-chlorobenzo-1,2,4-triazine] | 25 to 30 µg/mL (≈ 98.9 to 119 µM) | 500 µg/mL (≈ 1980 µM) | 500 µg/mL (≈ 1980 µM) | 50 µg/mL (≈ 198 µM) | – | – | – |
| OC[C@@H](O)[C@@H](O)[C@H](O)c1nnc2ccc(Cl)cc2n1 [Compound k, 3-(D-arabino-tetritol-1-yl)-6-chlorobenzo-1,2,4-triazine] | – | – | – | – | 250 µg/mL | – | – |
| 3-(D-galacto-tetritol-1-yl)-1,2,4-benzotriazine [Compound i] | – | – | – | – | 400 µg/mL | – | – |
| CCOC(=O)Cc1nnc2ccc(Br)cc2n1 [Compound g, 3-(ethoxycarbonylmethyl)-6-bromobenzo-1,2,4-triazine] | 35 µg/mL (≈ 118 µM) | 8 to 16 µg/mL (≈ 27 to 54 µM) | – | 8 to 16 µg/mL (≈ 27 to 54 µM) | – | preferred activity | – |
| OC[C@@H](O)[C@@H](O)[C@H](O)c1nnc2ccccc2n1 [Compound h, 3-(D-arabino-tetritol-1-yl)-1,2,4-benzotriazine] | – | – | – | – | 150 µg/mL | – | 150 µg/mL |
| CC(C)NC(=O)Cc1nnc2ccccc2n1 [Compound l, 3-(isopropylaminocarbonylmethyl)-1,2,4-benzotriazine] | – | – | – | – | – | preferred activity | – |
| COC(=O)Cc1nnc2cccc(Cl)c2n1 [Compound c, 3-(methoxycarbonylmethyl)-5-chlorobenzo-1,2,4-triazine] | 12 µg/mL (≈ 50.5 µM) | 16 µg/mL (≈ 67.3 µM) | – | 8 to 16 µg/mL (≈ 33.7 to 67.3 µM) | – | preferred activity | – |
